System: 317291-083-R-J1-PDC complex spheroids, viability
Assay: Anticancer human tumor 317291-083-R-J1-PDC patient-derived soft tissue sarcoma cell line growth inhibition [GQUAD]
Settings: for IC50: curve of first compound; for viability, T/C: stronger effect = lower value; active = viability on the fitted dose curve at most 10% of control; inactive = the rest
In short: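 Viability of tumor cells grown as complex spheroids with endothelial and stromal cells, exposed to drug combinations. Top concentration at or near clinical Cmax (else 10 microM), diluted in half-log increments.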

[1] = second compound 0.0316 µM, first compound 0.0316 µM
[2] = second compound 0.0316 µM, first compound 0.1 µM
[3] = second compound 0.0316 µM, first compound 0.316 µM
[4] = second compound 0.0316 µM, first compound 1 µM
[5] = second compound 0.0316 µM, first compound 3.16 µM
[6] = second compound 0.0316 µM, first compound 10 µM
[7] = second compound 0.1 µM, first compound 0.0316 µM
[8] = second compound 0.1 µM, first compound 0.1 µM
[9] = second compound 0.1 µM, first compound 0.316 µM
[10] = second compound 0.1 µM, first compound 1 µM
[11] = second compound 0.1 µM, first compound 3.16 µM
[12] = second compound 0.1 µM, first compound 10 µM
[13] = second compound 0.316 µM, first compound 0.0316 µM
[14] = second compound 0.316 µM, first compound 0.1 µM
[15] = second compound 0.316 µM, first compound 0.316 µM
[16] = second compound 0.316 µM, first compound 1 µM
[17] = second compound 0.316 µM, first compound 3.16 µM
[18] = second compound 0.316 µM, first compound 10 µM
[19] = second compound 1 µM, first compound 0.0316 µM
[20] = second compound 1 µM, first compound 0.1 µM
[21] = second compound 1 µM, first compound 0.316 µM
[22] = second compound 1 µM, first compound 1 µM
[23] = second compound 1 µM, first compound 3.16 µM
[24] = second compound 1 µM, first compound 10 µM
[25] = second compound 3.16 µM, first compound 0.0316 µM
[26] = second compound 3.16 µM, first compound 0.1 µM
[27] = second compound 3.16 µM, first compound 0.316 µM
[28] = second compound 3.16 µM, first compound 1 µM
[29] = second compound 3.16 µM, first compound 3.16 µM
[30] = second compound 3.16 µM, first compound 10 µM
[31] = second compound 10 µM, first compound 0.0316 µM
[32] = second compound 10 µM, first compound 0.1 µM
[33] = second compound 10 µM, first compound 0.316 µM
[34] = second compound 10 µM, first compound 1 µM
[35] = second compound 10 µM, first compound 3.16 µM
[36] = second compound 10 µM, first compound 10 µM
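Note: spheroids exposed to compounds for one week before readout.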
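Throughout, for viability, T/C: percent viability relative to DMSO vehicle wells taken as 100%.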

COc1cccc2c1C(=O)c1c(O)c3c(c(O)c1C2=O)CC(O)(C(=O)CO)CC3OC1CC(N)C(O)C(C)O1 (stereo not drawn) + Cc1[nH]c2ccc(F)cc2c1-c1nc2c3cccnc3c3ncccc3c2[nH]1
135 nM: IC50 (second compound 1 µM)
active: viability, T/C [4] 9.79% | viability, T/C [5] 0.88% | viability, T/C [6] 4.17% | viability, T/C [10] 8.91% | viability, T/C [11] 1.29% | viability, T/C [12] 2.78% | viability, T/C [16] 13.5% | viability, T/C [17] 1.55% | viability, T/C [18] 3.24% | viability, T/C [22] 11.1% | viability, T/C [23] 1.17% | viability, T/C [24] 1.78% | viability, T/C [28] 16.5% | viability, T/C [29] 1.5% | viability, T/C [30] 1.98% | viability, T/C [34] 8.13% | viability, T/C [35] 1.49% | viability, T/C [36] 2.3%
81 nM: IC50 (second compound 0.0316 µM)
65.5 nM: IC50 (second compound 3.16 µM)
72.1 nM: IC50 (second compound 0.1 µM)
77.4 nM: IC50 (second compound 0.316 µM)
inactive: viability, T/C [1] 112% | viability, T/C [2] 31.8% | viability, T/C [3] 21.9% | viability, T/C [7] 80.3% | viability, T/C [8] 35.4% | viability, T/C [9] 21.6% | viability, T/C [13] 88.3% | viability, T/C [14] 36.5% | viability, T/C [15] 19.7% | viability, T/C [19] 89.8% | viability, T/C [20] 60.3% | viability, T/C [21] 21.3% | viability, T/C [25] 77% | viability, T/C [26] 31.2% | viability, T/C [27] 18% | viability, T/C [31] 68.3% | viability, T/C [32] 39.3% | viability, T/C [33] 16.9%
65.2 nM: IC50 (second compound 10 µM)

Cc1cccc(N(C)C(=O)C2C(O)CCN2c2nc(C)cc(C(F)(F)F)c2C#N)c1 (stereo not drawn) + Cc1[nH]c2ccc(F)cc2c1-c1nc2c3cccnc3c3ncccc3c2[nH]1
inactive: viability, T/C [1] 112% | viability, T/C [2] 113% | viability, T/C [3] 105% | viability, T/C [4] 120% | viability, T/C [5] 100% | viability, T/C [6] 91.9% | viability, T/C [7] 117% | viability, T/C [8] 95.1% | viability, T/C [9] 118% | viability, T/C [10] 104% | viability, T/C [11] 121% | viability, T/C [12] 87.7% | viability, T/C [13] 102% | viability, T/C [14] 111% | viability, T/C [15] 102% | viability, T/C [16] 113% | viability, T/C [17] 121% | viability, T/C [18] 93.4% | viability, T/C [19] 126% | viability, T/C [20] 112% | viability, T/C [21] 121% | viability, T/C [22] 111% | viability, T/C [23] 102% | viability, T/C [24] 86.7% | viability, T/C [25] 111% | viability, T/C [26] 113% | viability, T/C [27] 107% | viability, T/C [28] 110% | viability, T/C [29] 111% | viability, T/C [30] 69% | viability, T/C [31] 95.1% | viability, T/C [32] 89.6% | viability, T/C [33] 101% | viability, T/C [34] 104% | viability, T/C [35] 92.5% | viability, T/C [36] 108%
> 10000 nM: IC50 (second compound 0.0316 µM) | IC50 (second compound 0.1 µM) | IC50 (second compound 0.316 µM) | IC50 (second compound 1 µM) | IC50 (second compound 3.16 µM) | IC50 (second compound 10 µM)

Cn1ncnc1[C@H]1c2n[nH]c(=O)c3cc(F)cc(c23)N[C@@H]1c1ccc(F)cc1 + Cc1[nH]c2ccc(F)cc2c1-c1nc2c3cccnc3c3ncccc3c2[nH]1
inactive: viability, T/C (second compound 0.0316 µM, first compound 0.000999 µM) 104% | viability, T/C (second compound 0.0316 µM, first compound 0.00316 µM) 101% | viability, T/C (second compound 0.0316 µM, first compound 0.00999 µM) 120% | viability, T/C [1] 87.8% | viability, T/C (second compound 0.0316 µM, first compound 0.0999 µM) 92% | viability, T/C [3] 77.2% | viability, T/C (second compound 0.1 µM, first compound 0.000999 µM) 119% | viability, T/C (second compound 0.1 µM, first compound 0.00316 µM) 99.2% | viability, T/C (second compound 0.1 µM, first compound 0.00999 µM) 113% | viability, T/C [7] 112% | viability, T/C (second compound 0.1 µM, first compound 0.0999 µM) 91.6% | viability, T/C [9] 64.7% | viability, T/C (second compound 0.316 µM, first compound 0.000999 µM) 112% | viability, T/C (second compound 0.316 µM, first compound 0.00316 µM) 114% | viability, T/C (second compound 0.316 µM, first compound 0.00999 µM) 97.7% | viability, T/C [13] 94.3% | viability, T/C (second compound 0.316 µM, first compound 0.0999 µM) 108% | viability, T/C [15] 91.1% | viability, T/C (second compound 1 µM, first compound 0.000999 µM) 120% | viability, T/C (second compound 1 µM, first compound 0.00316 µM) 113% | viability, T/C (second compound 1 µM, first compound 0.00999 µM) 89.5% | viability, T/C [19] 89.3% | viability, T/C (second compound 1 µM, first compound 0.0999 µM) 91.1% | viability, T/C [21] 72.3% | viability, T/C (second compound 3.16 µM, first compound 0.000999 µM) 106% | viability, T/C (second compound 3.16 µM, first compound 0.00316 µM) 99.7% | viability, T/C (second compound 3.16 µM, first compound 0.00999 µM) 96.7% | viability, T/C [25] 73.4% | viability, T/C (second compound 3.16 µM, first compound 0.0999 µM) 75.3% | viability, T/C [27] 57.1% | viability, T/C (second compound 10 µM, first compound 0.000999 µM) 96.1% | viability, T/C (second compound 10 µM, first compound 0.00316 µM) 100% | viability, T/C (second compound 10 µM, first compound 0.00999 µM) 102% | viability, T/C [31] 75.4% | viability, T/C (second compound 10 µM, first compound 0.0999 µM) 86% | viability, T/C [33] 68.7%
> 316 nM: IC50 (second compound 0.0316 µM) | IC50 (second compound 0.1 µM) | IC50 (second compound 0.316 µM) | IC50 (second compound 1 µM) | IC50 (second compound 3.16 µM) | IC50 (second compound 10 µM)

O=c1[nH]cc(F)c(=O)[nH]1 + Cc1[nH]c2ccc(F)cc2c1-c1nc2c3cccnc3c3ncccc3c2[nH]1
823 nM: IC50 (second compound 10 µM)
1600 nM: IC50 (second compound 1 µM)
1770 nM: IC50 (second compound 0.316 µM)
5340 nM: IC50 (second compound 0.0316 µM)
inactive: viability, T/C [1] 118% | viability, T/C [2] 117% | viability, T/C [3] 116% | viability, T/C [4] 69.5% | viability, T/C [5] 73.3% | viability, T/C [6] 31.8% | viability, T/C [7] 110% | viability, T/C [8] 106% | viability, T/C [9] 96.7% | viability, T/C [10] 62.2% | viability, T/C [11] 34.7% | viability, T/C [12] 30.6% | viability, T/C [13] 108% | viability, T/C [14] 104% | viability, T/C [15] 89.1% | viability, T/C [16] 63.6% | viability, T/C [17] 35.4% | viability, T/C [18] 31.8% | viability, T/C [19] 93.9% | viability, T/C [20] 102% | viability, T/C [21] 102% | viability, T/C [22] 60.9% | viability, T/C [23] 36.5% | viability, T/C [24] 31.9% | viability, T/C [25] 99.3% | viability, T/C [26] 86.6% | viability, T/C [27] 79.2% | viability, T/C [28] 45.2% | viability, T/C [29] 64.3% | viability, T/C [30] 30.2% | viability, T/C [31] 73.6% | viability, T/C [32] 75.9% | viability, T/C [33] 81.5% | viability, T/C [34] 44.5% | viability, T/C [35] 33% | viability, T/C [36] 27.4%
1680 nM: IC50 (second compound 0.1 µM)
2710 nM: IC50 (second compound 3.16 µM)

Source: PubChem BioAssay AID2060497 (Molecular Pharmacology Branch, DTP, NCI, 2025)
